The target in assay [1] is T1, PRMT1 (Homo sapiens, UniProt Q99873). Put plainly: PRMT1 RKO Cellular Target Engagement Assay (In-Cell Western, asymmetric di-methyl arginine). The assay is classed as cell-based. Conditions: RKO cells, 48 hr compound incubation; read-out: RKO IC50 (PRMT-1 Target Engagement). Summed up:
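RKO cells (1,000/well) received 1:3 serially diluted compound for 48 h at 37 °C, then were fixed, permeabilised and immunostained for asymmetric di-methyl arginine by In-Cell Western. The 800 nm antibody signal was normalised to CellTag 700 nm; IC50 from four-parameter logistic fit.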

For assay [2], the system named is PATC53 cells. Put plainly: PATC53 Long Term Phenotypic Assay (14 days, crystal violet viability). The format is cell-based. Conditions: 336 h. The protocol: PATC53 cells were derived from the PATC53 PDX model and kindly provided by Jason Fleming (MDACC). The cells were routinely maintained in DMEM/F12 Medium (Corning, Catalog #10-090-CV) supplemented with 10% fetal bovine serum (Sigma, Catalog #F2442), 100 units/mL penicillin and 100 μg/mL streptomycin (Gibco, Catalog #15140-122) in a humidified incubator (37° C., 5% CO2). Prior to the assay, cells were seeded onto a 12-well, TC treated plate (Corning, catalog #353043) at a density of 250 cells per well in a volume of 1 mL. The plate was incubated for 24 hours at 37° C. and 5% CO2. Stock solutions of the test compounds were prepared in 100% DMSO (Sigma, Catalog #D2650) and serially diluted 1:3 using 100% DMSO. Compounds were additionally diluted 1:100 in culture medium, and 110 μL/well was transferred to the tissue culture plate. Following the compound addition, the plate was incubated at 37° C. and 5% CO2 for 14 days. Viability was then assessed by crystal violet staining (Fisher Scientific, Catalog #C58125) as follows: 450 μL of crystal violet (1 mg/mL) was added to the plate for a 10 minute incubation at room temperature. After incubation, the plate was washed 3× with distilled water to remove excess dye and allowed to dry overnight. The crystal violet was solubilized using 10% HOAc (500 μL) for 10 minutes at room temperature, while shaking. A volume of 100 μL was then transferred to a 96-well SpectraPlate (Perkin Elmer, Catalog #6005649). Absorbance at 590 nm was measured with a BioTek Synergy Neo. IC50 values were calculated using a four-parameter logistic curve fit using Genedata Screener software.

For assay [3], the system named is DOHH2 cells. Put plainly: DOHH2 Long Term Phenotypic Assay (7 days, Cell Titer-Glo viability). The assay is classed as cell-based. The following applies: Homo sapiens, DOHH-2, 168 h, Cell Titer-Glo 2.0. Summed up:
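DOHH2 lymphoma cells (250 per well) in RPMI-1640 with 10% FBS were exposed to 1:3 serially diluted compounds for 7 days at 37 °C, 5% CO2. Viability was read by CellTiter-Glo 2.0 luminescence, and IC50 values came from four-parameter logistic fits.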

For assay [4], the target named is T1, PRMT1. Put plainly: PRMT1 Enzymatic Assay (LANCE TR-FRET, methylation of histone H4 at Arg3). The format is biochemical. Also on record: purchased SignalChem P365-380G. Conditions: PRMT1 1.5 nM, SAM 1 μM, biotinylated histone H4 (1-21) 25 nM; read-out: PRMT-1 IC50. Put shortly:
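PRMT1 (1.5 nM) preincubated 15 min with compound at room temperature, then reacted 1 h with 1 μM SAM and 25 nM biotinylated histone H4 (1-21) in 50 mM Hepes pH 8, 1 mM TCEP, 0.003% Tween-20. H4R3me detected by TR-FRET (665/620 nm ratio); IC50 from four-parameter logistic fit.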
(In TR-FRET formats the signal depends on donor and acceptor labels being close together.)

Structures are written as SMILES.

T1 sequence (Q99873 whole entry): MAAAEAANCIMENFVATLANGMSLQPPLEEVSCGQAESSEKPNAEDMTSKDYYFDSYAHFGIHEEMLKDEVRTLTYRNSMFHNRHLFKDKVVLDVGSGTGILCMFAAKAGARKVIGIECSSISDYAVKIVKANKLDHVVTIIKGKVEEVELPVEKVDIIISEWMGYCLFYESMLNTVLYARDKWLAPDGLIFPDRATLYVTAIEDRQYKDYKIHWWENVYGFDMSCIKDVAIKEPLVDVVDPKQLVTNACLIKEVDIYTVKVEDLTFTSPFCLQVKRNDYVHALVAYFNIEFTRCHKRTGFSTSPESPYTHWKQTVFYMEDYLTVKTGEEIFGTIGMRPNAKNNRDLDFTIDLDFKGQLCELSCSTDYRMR

Take `CNCCN(C)Cc1nn2c(c1C1CCC(COC)(COC)CC1)CN(C(=O)C13CC(OC)(C1)C3)CC2` [Example 25, (3-(4,4-bis(methoxymethyl)-cyclohexyl)-2-((methyl(2-(methylamino)ethyl)amino)-methyl)-6,7-dihydropyrazolo-[1,5-a]pyrazin-5(4H)-yl)(3-methoxybicyclo[1.1.1]pentan-1-yl)methanone]: the IC50 in assay [1] stood at 419 nM; in assay [2], 203 nM; in assay [3], 150 nM; in assay [4] it was 82 nM.
As to `CNCCN(C)Cc1nn2c(c1C1CCC(COC)(COC)CC1)CN(C(=O)CC1CC1)CC2` [Example 27, 1-(3-(4,4-bis(methoxy-methyl)cyclohexyl)-2-((methyl(2-(methylamino)-ethyl)amino)methyl)-6,7-dihydropyrazolo[1,5-a]-pyrazin-5(4H)-yl)-2-cyclopropylethan-1-one], the IC50 in assay [1] is 318 nM; in assay [2] it was 115 nM; in assay [3], 79 nM; in assay [4] it was 59 nM.
For the compound `CNCCN(C)Cc1nn2c(c1C1CCC(COC)(COC)CC1)CN(C(=O)C1(OC)CCC1)CC2` [Example 28, (3-(4,4-bis(methoxymethyl)-cyclohexyl)-2-((methyl(2-(methylamino)ethyl)amino)-methyl)-6,7-dihydropyrazolo-[1,5-a]pyrazin-5(4H)-yl)(1-methoxycyclobutyl)-methanone], the IC50 was 907 nM in assay [1], 435 nM in assay [2], 207 nM in assay [3] and 139 nM in assay [4].
As to `CNCCN(C)Cc1nn2c(c1C1CCC(COC)(COC)CC1)CN(C(=O)C1CCC(F)(F)CC1)CC2` [Example 29, (3-(4,4-bis(methoxymethyl)-cyclohexyl)-2-((methyl(2-(methylamino)ethyl)amino)-methyl)-6,7-dihydropyrazolo-[1,5-a]pyrazin-5(4H)-yl)(4,4-difluorocyclohexyl)-methanone], the IC50 in assay [1] turned out to be 271 nM; in assay [2] it was 84 nM; in assay [3], 99 nM; in assay [4], 65 nM.
The corresponding values for `CNCCN(C)Cc1nn2c(c1C1CCC(COC)(COC)CC1)CN(C(=O)COC)CC2` [Example 30, 1-(3-(4,4-bis(methoxy-methyl)cyclohexyl)-2-((methyl(2-(methylamino)-ethyl)amino)methyl)-6,7-dihydropyrazolo[1,5-a]-pyrazin-5(4H)-yl)-2-methoxyethan-1-one] are 795 nM, 795 nM, 159 nM and 81 nM.
The corresponding values for `CNCCN(C)Cc1nn2c(c1C1CCC(COC)(COC)CC1)CN(C(=O)C1CCCO1)CC2` (centres unmarked) [Example 32, (3-(4,4-bis(methoxymethyl)-cyclohexyl)-2-((methyl(2-(methylamino)ethyl)amino)-methyl)-6,7-dihydropyrazolo-[1,5-a]pyrazin-5(4H)-yl)-(tetrahydrofuran-2-yl)-methanone] are 293 nM, 163 nM, 160 nM and 46 nM.
Taken in the same sequence, the figures for `CNCCN(C)Cc1nn2c(c1C1CCC(COC)(COC)CC1)CN(C(=O)C1CCCC1)CC2` [Example 33, (3-(4,4-bis(methoxymethyl)-cyclohexyl)-2-((methyl(2-(methylamino)ethyl)amino)-methyl)-6,7-dihydropyrazolo-[1,5-a]pyrazin-5(4H)-yl)-(cyclopentyl)methanone] were 120 nM, 55 nM, 83 nM and 55 nM.
Take `CNCCN(C)Cc1nn2c(c1C1CCC(COC)(COC)CC1)CN(C(=O)C1CCOC1)CC2` (centres unmarked) [Example 35, (3-(4,4-bis(methoxymethyl)-cyclohexyl)-2-((methyl(2-(methylamino)ethyl)amino)-methyl)-6,7-dihydropyrazolo-[1,5-a]pyrazin-5(4H)-yl)-(tetrahydrofuran-3-yl)-methanone]: the IC50 is 818 nM in assay [1], 655 nM in assay [2], 212 nM in assay [3] and 62 nM in assay [4].

One may read the IC50 as the concentration needed to halve the response being measured.

(Values after US20230416261A1, “ETHANEDIAMINE-HETEROCYCLE DERIVATIVES AS INHIBITORS OF PROTEIN ARGININE METHYLTRANSFERASES” (Board of Regents, The University of Texas System, priority 2021, published 2023).)
